Results taken from patent publication US6346529B1, “Antiviral therapy using thiazine dyes” (Oklahoma Medical Research Foundation, priority 1988, dated 2002).
pEC50, pIC50: −log10 of the molar value. Read-outs that look alike come from different tables or passages of the source.

Tests used:
[1] = system: nucleosides of adenine, cytosine, thymine, and guanine; assay: Methylene blue plus light treatment of nucleosides (HPLC); type: biochemical; settings: methylene blue plus light 15 min
Experimental: The nucleosides of adenine, cytosine, thymine, and guanine (approximately 200 nmoles each) were also subjected to methylene blue (20 μl into 2.0 mls final total volume) plus light treatment (100 watt incandescent light 11 cm over solution for 15 min).

[2] = system: RNA virus R17; assay: Inactivation of RNA virus R17, plaque titer on E. coli lawn; type: cell-based, R17 phage; settings: for PFU: MB 0.05 uM
Experimental: Add 20 μl φ (R17 phage) stock to 2.0 ml dilution buffer and dispense 0.3 ml into each of tubes A-F. Next add methylene blue to give concentrations shown in Table 2 below. Pipet 270 μl of samples to be light treated into the #1 wells of a 96 well microtiter plate, corresponding to its letter label A-H. The samples in the microtiter plate were exposed to light through water (¼ cm) deep in a petri dish for 5 minutes. 270 μl of each sample not to be light treated was then added to wells in the plate.
R17 virus samples were also tested to determine the time of exposure of light required to inactivate the virus. […] The length of exposure was varied as follows:
Add 0.3 ml to well H2, treat with light 0-5 min. Add 0.3 ml to well G2, treat with light 5 min-7.5 min. Add 0.3 ml to well F2, treat with light 7.5 min-9.0 min. Add 0.3 ml to well E2, treat with light 9.0 min-9.5 min. Add 0.3 ml to well D2, treat with light 9.5 min-9.9 min. Add 0.3 ml to well C2, treat with light 9.9 min-10.0 min. Add 0.3 ml to well B, no light. Add 0.3 ml to well A, no light.

[3] = system: HIV (LAV-I); assay: HIV in human PBMC, P24 levels by EIA; type: cell-based; settings: for inhibition at 0.001 µM / inhibition at 0.01 µM / inhibition at 1 µM / inhibition at 10 µM / inhibition at 0.1 µM / pEC50: Human immunodeficiency virus 1, PBMC
Experimental: While the previous example measured RT activity, the present example utilizes a direct quantitation of a viral protein (P24) as an indicator of antiviral effectiveness.
Peripheral blood mononuclear (PBM) cells were infected with HIV and treated with methylene blue as described above. The EC50 levels were calculated from enzyme immuno-assay (EIA) measurements of viral coat protein P24. The P24-specific EIA kit was purchased from Abbott Labs.

[4] = molecular target: T1, HIV-1 reverse transcriptase (RT) (Human immunodeficiency virus type 1 group M subtype B, UniProt P03367); assay: HIV-1 reverse transcriptase enzyme assay; type: biochemical
T1 construct: HIV reverse transcriptase (RT); endogenous in cells; host or cells: HIV-1-infected PHA-stimulated human PBM cells
Source text: (§1) Enzyme Assays: The preparation of the enzyme and the assay conditions used, were recently described by Schinazi, et al., Antimicrob. Agents Chemother. 33, 115-117 (1989). HIV-1 RT and cellular DNA polymerase alpha were isolated from infected and uninfected PHA-stimulated human PBM cells according to traditional methods (Eriksson, B., et al., Antimicrob. Agents Chemother. 31, 600-604, (1987); Furman, et al., Proc. Natl. Acad. Sci. USA 83, 8333-8337, (1986); Abrell, et al., J. Virol. 12, 431-439, (1973).
(§2) Assays. Reaction mixtures (100 μl) contained:
(§3) The reactions were started by the addition of 10 μl of purified enzyme, incubated at 37° C. for the indicated periods of time and processed as described in Eriksson, et al., Antimicrob. Agents Chemother. 31, 600-604 (1987).
(§4) Median-Effect Method: EC50 and IC50 values were obtained by analysis of the data using the median-effect equation (Chou, T., et al., “Quantitative Analysis of Dose-Effect Relationships: The Combined Effects of Multiple Drugs or Enzyme Inhibitors,” Adv. Enz. Regul. 22, 27-55 (1984).
(§5) The effect of methylene blue on two DNA polymerizing enzymes, HIV reverse transcriptase (RT) and calf thymus DNA polymerase alpha (CT α pol), was also studied.

[5] = molecular target: T2, calf thymus DNA polymerase alpha (CT α pol) (Bos taurus, UniProt A0AAA9TD94); assay: DNA polymerase alpha enzyme assay; type: biochemical
T2 construct: calf thymus DNA polymerase alpha (CT α pol); from tissue; host or cells: calf thymus
T2 sequence (A0AAA9TD94 entry or part of it): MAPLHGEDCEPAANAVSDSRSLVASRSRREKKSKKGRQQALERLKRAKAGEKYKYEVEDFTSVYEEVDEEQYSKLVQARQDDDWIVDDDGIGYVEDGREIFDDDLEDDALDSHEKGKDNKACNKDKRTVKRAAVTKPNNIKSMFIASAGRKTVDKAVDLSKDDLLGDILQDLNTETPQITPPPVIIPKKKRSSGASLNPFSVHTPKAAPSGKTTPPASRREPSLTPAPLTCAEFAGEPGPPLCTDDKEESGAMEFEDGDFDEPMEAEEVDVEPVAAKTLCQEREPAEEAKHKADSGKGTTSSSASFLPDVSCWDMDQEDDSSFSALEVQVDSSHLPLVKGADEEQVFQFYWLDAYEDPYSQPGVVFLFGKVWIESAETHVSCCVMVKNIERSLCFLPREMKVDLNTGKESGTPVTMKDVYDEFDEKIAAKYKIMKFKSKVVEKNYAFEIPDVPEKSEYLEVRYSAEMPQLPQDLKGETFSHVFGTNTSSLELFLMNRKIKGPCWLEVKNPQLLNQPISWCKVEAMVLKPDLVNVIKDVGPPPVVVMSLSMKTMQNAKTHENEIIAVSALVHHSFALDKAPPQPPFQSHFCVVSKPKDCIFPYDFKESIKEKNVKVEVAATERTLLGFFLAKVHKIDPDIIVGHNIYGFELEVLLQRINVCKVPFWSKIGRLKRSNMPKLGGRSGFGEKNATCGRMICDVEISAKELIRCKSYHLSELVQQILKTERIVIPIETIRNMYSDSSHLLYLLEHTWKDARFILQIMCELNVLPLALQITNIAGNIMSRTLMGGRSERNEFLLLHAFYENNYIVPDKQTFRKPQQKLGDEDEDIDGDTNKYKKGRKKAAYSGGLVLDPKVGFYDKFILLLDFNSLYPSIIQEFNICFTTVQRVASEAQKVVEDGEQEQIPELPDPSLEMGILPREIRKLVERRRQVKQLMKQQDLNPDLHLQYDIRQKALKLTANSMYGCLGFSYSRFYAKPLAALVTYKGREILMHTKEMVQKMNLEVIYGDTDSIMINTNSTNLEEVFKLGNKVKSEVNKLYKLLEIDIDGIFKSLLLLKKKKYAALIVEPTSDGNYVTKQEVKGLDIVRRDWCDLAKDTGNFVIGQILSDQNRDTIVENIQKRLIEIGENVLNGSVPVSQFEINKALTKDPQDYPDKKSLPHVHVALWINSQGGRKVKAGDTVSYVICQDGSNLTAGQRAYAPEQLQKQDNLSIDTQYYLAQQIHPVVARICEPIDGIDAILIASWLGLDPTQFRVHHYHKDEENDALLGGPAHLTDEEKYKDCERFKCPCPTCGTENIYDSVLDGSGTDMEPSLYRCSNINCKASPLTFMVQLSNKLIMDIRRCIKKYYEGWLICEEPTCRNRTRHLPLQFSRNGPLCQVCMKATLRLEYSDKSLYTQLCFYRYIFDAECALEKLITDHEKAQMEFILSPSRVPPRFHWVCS
Source text: as §1, §2, §3, §4, §5

[6] = cited from earlier work
[7] = PBM cell proliferation (cytotoxicity) assay; type: cell-based; settings: human
Experimental: PBM and CEM Cells Proliferation Assay: The drugs were evaluated for their potential toxic effects on uninfected PHA-stimulated human PBM cells and also in CEM cells. The cells were cultured with and without drug for 6 days at which time aliquots were counted for cell viability as described above. Median-Effect Method: EC50 and IC50 values were obtained by analysis of the data using the median-effect equation (Chou, T., et al., “Quantitative Analysis of Dose-Effect Relationships: The Combined Effects of Multiple Drugs or Enzyme Inhibitors,” Adv. Enz. Regul. 22, 27-55 (1984).

Q: With `CN(C)c1ccc2nc3ccc(N(C)C)cc3[s+]c2c1.[Cl-]` [MB, 3,7-Bis(dimethylamino)phenothiazin-5-ium chloride] as the molecule, how does the “formation of hydroxylated derivative from nucleosides” value [1] read?
A: Its value is “Only deoxyguanosine reacted to form the hydroxylated derivative”.

Q: And the “light exposure inactivating infectivity 50%” value ([2]; 0.05 μM methylene blue)?
A: The value was 45 s.

Q: And the pfu/ml ([2]; MB 0.02 uM, light 5′ yes)?
A: Its pfu/ml is 5.04 × 10^10 pfu/ml.

Q: What about the pfu/ml ([2]; MB 0.04 uM, light 5′ yes) of the same molecule?
A: Its pfu/ml is 1.11 × 10^10 pfu/ml.

Q: And the “t½ of R17 inactivation” value ([2]; MB 0.05 uM and light)?
A: Its value is 48 to 60 s.

Q: What about the PFU ([2]; light 0.1 min) of the same molecule?
A: The PFU was 3.3 × 10^9/ml PFU/ml.

Q: What about the PFU ([2]; light 0.5 min) of the same molecule?
A: Its PFU is 5.0 × 10^9/ml PFU/ml.

Q: What about the PFU ([2]; light 2.5 min) of the same molecule?
A: Its PFU is 9.1 × 10^7/ml PFU/ml.

Q: What about the PFU ([2]; light 5.0 min) of the same molecule?
A: Its PFU is 6.93 × 10^7/ml PFU/ml.

Q: What about the PFU ([2]; light exposure none) of the same molecule?
A: Its PFU is 2.76 × 10^9/ml PFU/ml.

Q: And the pfu/ml ([2]; MB 0.2 uM, light 5′ yes)?
A: Its pfu/ml is 3.25 × 10^5 pfu/ml.

Q: And the pfu/ml ([2]; MB 2.0 uM, light 5′ yes)?
A: The pfu/ml was 3.00 × 10^3 pfu/ml.

Q: And the pfu/ml ([2]; MB 2.0 uM, light no)?
A: The pfu/ml was 4.80 × 10^10 pfu/ml.

Q: And the pfu/ml ([2]; MB 20.0 uM, light 5′ yes)?
A: Its pfu/ml is 4.20 × 10^4 pfu/ml.

Q: And the pfu/ml ([2]; MB 20.0 uM, light no)?
A: Its pfu/ml is 3.00 × 10^9 pfu/ml.

Q: And the “ng P24/ml” value ([3]; Dark, 0.001 μM)?
A: The value was 356.0 ng P24/ml.

Q: What about the “ng P24/ml” value ([3]; Dark, 0.01 μM) of the same molecule?
A: The value was 270.2 ng P24/ml.

Q: What about the “ng P24/ml” value ([3]; Dark, 1 μM) of the same molecule?
A: The value was 84.1 ng P24/ml.

Q: What about the “ng P24/ml” value ([3]; Dark, 10 μM) of the same molecule?
A: Its value is 5.4 ng P24/ml.

Q: And the “ng P24/ml” value ([3]; Dark, .1 μM)?
A: Its value is 287.2 ng P24/ml.

Q: What about the inhibition at 0.001 µM ([3]; read-out: % Inhibition (corrected), Dark, 0.001 μM) of the same molecule?
A: Its inhibition at 0.001 µM is 0.8%.

Q: What about the inhibition at 0.01 µM ([3]; read-out: % Inhibition (corrected), Dark, 0.01 μM) of the same molecule?
A: Its inhibition at 0.01 µM is 24.7%.

Q: And the inhibition at 1 µM ([3]; read-out: % Inhibition (corrected), Dark, 1 μM)?
A: Its inhibition at 1 µM is 76.6%.

Q: And the inhibition at 10 µM ([3]; read-out: % Inhibition (corrected), Dark, 10 μM)?
A: The inhibition at 10 µM was 98.5%.

Q: And the inhibition at 0.1 µM ([3]; read-out: % Inhibition (corrected), Dark, .1 μM)?
A: The inhibition at 0.1 µM was 20%.

Q: And the inhibition at 0.001 µM ([3]; read-out: % Inhibition (corrected), Light, 0.001 μM)?
A: Its inhibition at 0.001 µM is -3.2%.

Q: What about the inhibition at 0.01 µM ([3]; read-out: % Inhibition (corrected), Light, 0.01 μM) of the same molecule?
A: The inhibition at 0.01 µM was -3.2%.

Q: And the inhibition at 1 µM ([3]; read-out: % Inhibition (corrected), Light, 1 μM)?
A: The inhibition at 1 µM was 98.6%.

Q: And the inhibition at 10 µM ([3]; read-out: % Inhibition (corrected), Light, 10 μM)?
A: The inhibition at 10 µM was 99.4%.

Q: And the inhibition at 0.1 µM ([3]; read-out: % Inhibition (corrected), Light, .1 μM)?
A: The inhibition at 0.1 µM was 15.8%.

Q: And the pEC50 ([3]; read-out: EC50 (P24), Dark)?
A: Its pEC50 is 6.48.

Q: And the pEC50 ([3]; read-out: EC50 (P24), Light)?
A: The pEC50 was 7.62.

Q: What about the “ng P24/ml” value ([3]; Light, 0.001 μM) of the same molecule?
A: The value was 370.5 ng P24/ml.

Q: And the “ng P24/ml” value ([3]; Light, 0.01 μM)?
A: The value was 370.5 ng P24/ml.

Q: And the “ng P24/ml” value ([3]; Light, 1 μM)?
A: Its value is 5.1 ng P24/ml.

Q: And the “ng P24/ml” value ([3]; Light, 10 μM)?
A: Its value is 2.2 ng P24/ml.

Q: And the “ng P24/ml” value ([3]; Light, .1 μM)?
A: The value was 302.2 ng P24/ml.

Q: And the pIC50 ([4]; Dark)?
A: Its pIC50 is 5.00.

Q: What about the pIC50 ([4]; Light) of the same molecule?
A: The pIC50 was 5.04.

Q: And the pIC50 ([5]; Dark)?
A: Its pIC50 is 3.98.

Q: What about the pIC50 ([5]; Light) of the same molecule?
A: The pIC50 was 3.90.

Q: What about the “absorption from the GI tract” value ([6]; American Hospital Formulary Service) of the same molecule?
A: The value was “absorbed well from the GI tract”.

Q: And the “excreted in urine and via the bile” value ([6]; mostly as leukomethylene blue)?
A: The value was “about 75%”.

Q: For `Nc1nc2c(ncn2COCCO)c(=O)[nH]1` [ACV, Acyclovir], which IC50 at 6 days [7] is on record?
A: Its IC50 at 6 days is over 100 µM.
